Test results from patent US9801901B2, “Alginate oligomers for use in overcoming multidrug resistance in bacteria” (priority 2009, dated 2017).
≈ marks a conversion by molar mass, not a printed value. Read-outs that look alike come from different tables or passages of the source. Marks after values point to notes of the source that are not given here.

Columns and labels:
[1] = test system: Burkholderia cepacia (LMG18941, ATCC-BAA-246); assay: MIC-assay, Mueller-Hinton broth with G-block alginate, 384-well, OD600
[2] = test system: Acinetobacter baumannii (Egypt, V9); assay: as above
[3] = test system: Pseudomonas aeruginosa (R22, PSA, V1); assay: as above
Streptococcus oralis = assay: MIC-assay, Mueller-Hinton broth with G-block alginate, 384-well, OD600 (Table 12); type: cell-based; conditions: Streptococcus oralis (5610, V17) MDR, read-out: MIC
Source text: (§1) Minimum inhibitory concentration (MICs) of different antibiotics for strains of Streptococcus oralis and Staphylococcus aureus (MRSA) displaying MDR phenotypes in the presence of varying concentrations of OligoCF-5/20 (0-10%). (MIC values are expressed in μg ml^−1).

[4] = test system: Staphylococcus aureus (MRSA) U50; assay: as above; type: cell-based; conditions: MRSA 1040s, U50 MDR, read-out: MIC
Source text: as §1

[5] = test system: Acinetobacter lwoffii (Egypt, V10); assay: MIC-assay, Mueller-Hinton broth with G-block alginate, 384-well, OD600
V11 5702 (Wales) E. coli = assay: MIC assay, CAMHB with alginate oligomer, no visible growth; type: cell-based; conditions: Table 5, V11 MDR E.coli
[6] = test system: Pseudomonas aeruginosa ATCC 39324, mucoid type strain (R79); assay: as above; type: cell-based; conditions: Pseudomonas aeruginosa, ATCC39324, Table 1, R79, read-out: MIC
[7] = test system: V23 1322 Burkholderia cepacia; assay: as above; type: cell-based
[8] = test system: Klebsiella pneumoniae KP05 506 from India (V3); assay: as above; type: cell-based; conditions: for MIC: Klebsiella pneumoniae, Table 1, V3 KP05 506, read-out: MIC
[9] = test system: V19 non MDR Acinetobacter baumannii; assay: MIC assay, CAMHB with M-block alginate oligomer, no visible growth; type: cell-based; conditions: Table 7, V19 non MDR Acin. baum
Source text: The study described in Example 1 was repeated with the following strains of Acinetobacter baumannii, antibiotics and M-block alginate oligomer in place of OligoG CF-5/20 as detailed in Table 7. The M-block oligomer is 100% M with a DPn of 15 to 18,

[10] = ATCCBAA246|LMG18941, Table 8, G-block (OligoCF-5/20) 0%
[11] = ATCCBAA246|LMG18941, Table 8, G-block (OligoCF-5/20) 2%
[12] = ATCCBAA246|LMG18941, Table 8, G-block (OligoCF-5/20) 6%
[13] = ATCCBAA246|LMG18941, Table 8, G-block (OligoCF-5/20) 10%
[14] = Table 9, G-block (OligoCF-5/20) 0%
[15] = Table 9, G-block (OligoCF-5/20) 2%
[16] = Table 9, G-block (OligoCF-5/20) 6%
[17] = Table 9, G-block (OligoCF-5/20) 10%
[18] = Table 8, G-block (OligoCF-5/20) 0%
[19] = Table 8, G-block (OligoCF-5/20) 2%
[20] = Table 8, G-block (OligoCF-5/20) 6%
[21] = Table 8, G-block (OligoCF-5/20) 10%
[22] = Escherichia coli, OligoCF-5/20 0G, read-out: MIC
[23] = Burkholderia cepacia, Table 5, V23 MDR Burk cep, OligoCF-5/20 0G, read-out: MIC
[24] = Table 5, V23 MDR Burk cep, OligoCF-5/20 +2% G
[25] = Table 5, V23 MDR Burk cep, OligoCF-5/20 +6% G
[26] = Table 5, V23 MDR Burk cep, OligoCF-5/20 +10% G
[27] = Table 6, V23, Experiment 1 (18-03-10), OligoCF-5/20 +6% G
[28] = Table 6, V23, Experiment 1 (18-03-10), OligoCF-5/20 +10% G
[29] = Table 6, V23, Experiment 3 (19-03-10), OligoCF-5/20 +2% G
[30] = Table 6, V23, Experiment 3 (19-03-10), OligoCF-5/20 +10% G

## CC[C@H]1OC(=O)[C@H](C)[C@@H](O[C@H]2C[C@@](C)(OC)[C@@H](O)[C@H](C)O2)[C@H](C)[C@@H](O[C@@H]2O[C@H](C)C[C@H](N(C)C)[C@H]2O)[C@](C)(O)C[C@@H](C)/C(=N\OCOCCOC)[C@H](C)[C@@H](O)[C@]1(C)O [Roxithromycin]
[1]; [10]
  MIC: 256 µg/mL (≈ 306 µM)
[1]; [11]
  MIC: 256 µg/mL (≈ 306 µM)
[1]; [12]
  MIC: 256 µg/mL (≈ 306 µM)
[1]; [13]
  MIC: 128 µg/mL (≈ 153 µM)
[2]; [14]
  MIC: 8 µg/mL (≈ 9.56 µM)
[2]; [15]
  MIC: 4 µg/mL (≈ 4.78 µM)
[2]; [16]
  MIC: 4 µg/mL (≈ 4.78 µM)
[2]; [17]
  MIC: 2 µg/mL (≈ 2.39 µM)
[3]; [18]
  MIC: > 512 µg/mL
[3]; [19]
  MIC: > 512 µg/mL
[3]; [20]
  MIC: 512 µg/mL (≈ 612 µM)
[3]; [21]
  MIC: 256 µg/mL (≈ 306 µM)
Streptococcus oralis; G-block (OligoCF-5/20) 0%
  MIC: 8 µg/mL (≈ 9.56 µM)
Streptococcus oralis; G-block (OligoCF-5/20) 2%
  MIC: 8 µg/mL (≈ 9.56 µM)
Streptococcus oralis; G-block (OligoCF-5/20) 6%
  MIC: 0.0312 µg/mL (≈ 0.0373 µM)
Streptococcus oralis; G-block (OligoCF-5/20) 10%
  MIC: 16 µg/mL (≈ 19.1 µM)
[4]; G-block (OligoCF-5/20) 0%
  MIC: > 1020 µg/mL
[4]; G-block (OligoCF-5/20) 2%
  MIC: 1020 µg/mL (≈ 1220 µM)
[4]; G-block (OligoCF-5/20) 6%
  MIC: 512 µg/mL (≈ 612 µM)
[4]; G-block (OligoCF-5/20) 10%
  MIC: 256 µg/mL (≈ 306 µM)
[5]; [14]
  MIC: 4 µg/mL (≈ 4.78 µM)
[5]; [15]
  MIC: < 1 µg/mL
[5]; [16]
  MIC: < 1 µg/mL
[5]; [17]
  MIC: < 1 µg/mL

## CN(C)[C@@H]1C(O)=C(C(N)=O)C(=O)[C@@]2(O)C(O)=C3C(=O)c4c(O)cccc4[C@@](C)(O)[C@H]3[C@H](O)[C@@H]12 [Oxytetracycline]
V11 5702 (Wales) E. coli; [22]
  MIC: 0.5 µg/mL (≈ 1.09 µM)
V11 5702 (Wales) E. coli; OligoCF-5/20 +2% G
  MIC: 1^‡ μg/ml
V11 5702 (Wales) E. coli; OligoCF-5/20 +6% G
  MIC: 0.5 µg/mL (≈ 1.09 µM)
V11 5702 (Wales) E. coli; OligoCF-5/20 +10% G
  MIC: 0.5 µg/mL (≈ 1.09 µM)
[1]; [10]
  MIC: 32 µg/mL (≈ 69.5 µM)
[1]; [11]
  MIC: 16 µg/mL (≈ 34.7 µM)
[1]; [12]
  MIC: 32 µg/mL (≈ 69.5 µM)
[1]; [13]
  MIC: 32 µg/mL (≈ 69.5 µM)
[6]; OligoCF-5/20 0G
  MIC: 8 µg/mL (≈ 17.4 µM)
[6]; OligoCF-5/20 +2% G
  MIC: 4 µg/mL (≈ 8.69 µM)
[6]; OligoCF-5/20 +6% G
  MIC: 4 µg/mL (≈ 8.69 µM)
[6]; OligoCF-5/20 +10% G
  MIC: 2 µg/mL (≈ 4.34 µM)
[2]; [14]
  MIC: 1 µg/mL (≈ 2.17 µM)
[2]; [15]
  MIC: 0.5 µg/mL (≈ 1.09 µM)
[2]; [16]
  MIC: 1 µg/mL (≈ 2.17 µM)
[2]; [17]
  MIC: 0.5 µg/mL (≈ 1.09 µM)
[3]; [18]
  MIC: > 128 µg/mL
[3]; [19]
  MIC: > 128 µg/mL
[3]; [20]
  MIC: > 128 µg/mL
[3]; [21]
  MIC: > 128 µg/mL
[7]; [23]
  MIC: 256 µg/mL (≈ 556 µM)
[7]; Burkholderia cepacia, Table 6, V23, Experiment 1 (18-03-10), OligoCF-5/20 0G, read-out: MIC
  MIC: > 256 µg/mL
[7]; Burkholderia cepacia, Table 6, V23, Experiment 2 (18-03-10), OligoCF-5/20 0G, read-out: MIC
  MIC: > 256 µg/mL
[7]; Burkholderia cepacia, Table 6, V23, Experiment 3 (19-03-10), OligoCF-5/20 0G, read-out: MIC
  MIC: > 256 µg/mL
[7]; [24]
  MIC: 128^† μg/ml
[7]; [25]
  MIC: 128^† μg/ml
[7]; [26]
  MIC: 32^† μg/ml
[7]; Table 6, V23, Experiment 1 (18-03-10), OligoCF-5/20 +2% G
  MIC: 256^† μg/ml
[7]; [27]
  MIC: 256^† μg/ml
[7]; [28]
  MIC: 128^† μg/ml
[7]; Table 6, V23, Experiment 2 (18-03-10), OligoCF-5/20 +2% G
  MIC: >256 µg/mL
[7]; Table 6, V23, Experiment 2 (18-03-10), OligoCF-5/20 +6% G
  MIC: 256^† μg/ml
[7]; Table 6, V23, Experiment 2 (18-03-10), OligoCF-5/20 +10% G
  MIC: 128^† μg/ml
[7]; [29]
  MIC: 256^† μg/ml
[7]; Table 6, V23, Experiment 3 (19-03-10), OligoCF-5/20 +6% G
  MIC: 256^† μg/ml
[7]; [30]
  MIC: 256^† μg/ml
Streptococcus oralis; G-block (OligoCF-5/20) 0%
  MIC: < 0.25 µg/mL
Streptococcus oralis; G-block (OligoCF-5/20) 2%
  MIC: < 0.25 µg/mL
Streptococcus oralis; G-block (OligoCF-5/20) 6%
  MIC: 0.5 µg/mL (≈ 1.09 µM)
Streptococcus oralis; G-block (OligoCF-5/20) 10%
  MIC: < 0.25 µg/mL
[4]; G-block (OligoCF-5/20) 0%
  MIC: 2 µg/mL (≈ 4.34 µM)
[4]; G-block (OligoCF-5/20) 2%
  MIC: 2 µg/mL (≈ 4.34 µM)
[4]; G-block (OligoCF-5/20) 6%
  MIC: 1 µg/mL (≈ 2.17 µM)
[4]; G-block (OligoCF-5/20) 10%
  MIC: 0.5 µg/mL (≈ 1.09 µM)
[5]; [14]
  MIC: 0.5 µg/mL (≈ 1.09 µM)
[5]; [15]
  MIC: 0.5 µg/mL (≈ 1.09 µM)
[5]; [16]
  MIC: 0.5 µg/mL (≈ 1.09 µM)
[5]; [17]
  MIC: 0.5 µg/mL (≈ 1.09 µM)

## C[C@@H](O)[C@H]1C(=O)N2C(C(=O)O)=C(S[C@@H]3CN[C@H](C(=O)N(C)C)C3)[C@H](C)[C@H]12 [Meropenem]
V11 5702 (Wales) E. coli; [22]
  MIC: < 0.25 µg/mL
V11 5702 (Wales) E. coli; OligoCF-5/20 +2% G
  MIC: <0.25 µg/mL
V11 5702 (Wales) E. coli; OligoCF-5/20 +6% G
  MIC: <0.25 µg/mL
V11 5702 (Wales) E. coli; OligoCF-5/20 +10% G
  MIC: <0.25 µg/mL
[6]; OligoCF-5/20 0G
  MIC: < 1 µg/mL
[6]; OligoCF-5/20 +2% G
  MIC: < 1 µg/mL
[6]; OligoCF-5/20 +6% G
  MIC: < 1 µg/mL
[6]; OligoCF-5/20 +10% G
  MIC: < 1 µg/mL
[7]; [23]
  MIC: 64 µg/mL (≈ 167 µM)
[7]; [24]
  MIC: 64 µg/mL (≈ 167 µM)
[7]; [25]
  MIC: 32^† μg/ml
[7]; [26]
  MIC: 8^† μg/ml
[7]; [27]
  MIC: 64^† μg/ml
[7]; [28]
  MIC: 64^† μg/ml
[7]; [29]
  MIC: 64^† μg/ml
[7]; [30]
  MIC: 64^† μg/ml
[8]; Example 1, KP05 506
  effectiveness in conjunction with alginate oligomers: inconclusive
[8]; OligoCF-5/20 0G
  MIC: 64 µg/mL (≈ 167 µM)
[8]; OligoCF-5/20 +2% G
  MIC: 64 µg/mL (≈ 167 µM)
[9]; M-block oligomer 0M
  MIC: 8 µg/mL (≈ 20.9 µM)
[9]; M-block oligomer +2% M
  MIC: 4 µg/mL (≈ 10.4 µM)
[9]; M-block oligomer +6% M
  MIC: 2 µg/mL (≈ 5.22 µM)
[9]; M-block oligomer +10% M
  MIC: 1 µg/mL (≈ 2.61 µM)
